# Values of other authors in US8569273B2, “Ophthalmic formulations of cetirizine and methods of use” (Aciex Therapeutics, Inc., priority 2009, dated 2013).
# Details: ophthalmic antihistamine
row,SMILES,duration of action
1,C[C@@H]1CN([C@H]2CC[C@](C#N)(c3ccc(F)cc3)CC2)CC[C@]1(C(=O)O)c1ccccc1 [levocabastine],2 to 4 h
2,O=C(O)CCCN1CCC(O[C@@H](c2ccc(Cl)cc2)c2ccccn2)CC1 [bepotastine],8 h
